In US20130209433A1, “MODULATION OF AMINO ACID METABOLISM IN THE HYPOTHALAMUS” (Albert Einstein College of Medicine of Yeshiva University, priority 2005, published 2013):

Legend:
conscious rats = test: Intrahypothalamic (mediobasal hypothalamus) infusion with pancreatic clamp; type: in vivo, rat; details: for glucose production: IH infusion into mediobasal hypothalamus; for rate of glucose infusion required to maintain basal glucose levels: IH infusion 0.33 μl/h (L-glutamate 1 mM; KIC 3 mM bilaterally)
Description: Thus, we next tested whether the intra-hypothalamic ([…]) administration of glutamate could recapitulate the effects of […] proline on glucose production.
We next aimed to localize the central effects of KIC on liver glucose production. Toward this end, we administered 3 mM KIC (0.33 μl/h) bilaterally within the parenchyma of the medial hypothalamus. The total amount of KIC given during these experiments was 15 fold lower than that used in the ICV experiments. The correct placement of the hypothalamic cannulae was verified via the infusion of radiolabeled KIC as previously reported.

Sprague Dawley rats = test: ICV (third cerebral ventricle) infusion combined with systemic pancreatic-insulin clamp; type: in vivo, rat; details: for rate of glucose infusion (GIR) required to prevent hypoglycemia / decrease in endogenous glucose production / rate of glucose uptake: ICV infusion; for rate of glucose infusion (GIR) required to prevent hypoglycemia / decrease in endogenous glucose production: 3 mM solution at 5 μl/h for 6 hr; for rate of glucose infusion (GIR) required to prevent hypoglycemia: basal insulin clamp; for decrease in endogenous glucose production / rate of glucose uptake: pancreatic-insulin clamp; for rate of glucose uptake: 3 mM solution at 5 μl/h
Source text: To test this hypothesis we asked whether a primary increase in hypothalamic proline is per se sufficient to inhibit glucose production, and whether this effect requires metabolism of lactate to pyruvate. Experiments were designed to examine the effect of central administration of proline on whole body insulin action. In order to selectively increase the central availability of proline, we infused this amino acid via a chronic cannula implanted in the third cerebral ventricle (ICV) of conscious rats.
Proline (PRO, 3 mM solution at 5 μl/h) or vehicle (CON) was infused ICV for 6 hr in chronically catheterized Sprague Dawley rats. Insulin action was assessed by a combination of ICV infusions with systemic pancreatic-insulin clamp studies in order to control for the circulating levels of glucoregulatory hormones.
We next examined whether the effect of central proline on glucose production requires the inter-conversion between lactate and pyruvate catalyzed by LDH. In light of the ‘astrocyte-neuron lactate shuttle hypothesis’ (Pellerin and Magistretti, 2004), we proposed that central administration of proline leads to increased glutamate synthesis results in the increased formation of lactate (increased glycolysis) in astro-glia (Pellerin and Magistretti, 2004). Based on our previous work, the increased availability of lactate would in turn be expected to induce robust changes in liver glucose fluxes. Consistent with this hypothesis, impeding the conversion of glucose to lactate in astrocytes or of lactate to pyruvate in neurons within the hypothalamus should inhibit the potent metabolic effects of central proline on liver glucose fluxes. Oxamate (OXA) is a competitive inhibitor of LDH (Brooks et al., 1999). Thus, to test this hypothesis we next co-infused ICV oxamate (50 mM; 3 μl bolus; 5 μl/h) with proline in order to examine whether lactate metabolism is required for the effects of proline and presumably of other gluconeogenic amino acids on glucose production.
The entry of ketogenic amino acids into the oxidative pathway requires their conversion to the respective keto acid a reaction that is catalyzed by various amino acid aminotransferases. The keto acid product generated by leucine aminotransferase from leucine is α-ketoisocaproic acid (KIC) that can then be converted to acetyl-CoA by the consecutive action of five enzymes. The rate-limiting step in this process is the oxidative decarboxylation of KIC catalyzed by the branched-chain ketoacid dehydrogenase complex or BCKDC. This enzyme is inhibited by phosphorylation by a BCKDC kinase. Importantly, BCKDC can be robustly activated by α-chloroisocaproic acid (α-CIC) via inhibition of the BCKDC kinase (Harris et al., 1982). To test whether the central metabolism of ketogenic amino acids such as leucine could also lead to inhibition of glucose production, we next asked whether a primary increase in hypothalamic KIC is per se sufficient to inhibit glucose production, and whether this effect also requires metabolism of lactate to pyruvate and activation of ATP-dependent potassium channels (KATP). Experiments were designed to examine the effect of central administration of KIC on whole body insulin action.

Row | SMILES | glucose production (conscious rats) | rate of glucose infusion (GIR) required to prevent hypoglycemia (Sprague Dawley rats) | decrease in endogenous glucose production (Sprague Dawley rats) | rate of glucose uptake (Sprague Dawley rats) | rate of glucose infusion required to maintain basal glucose levels (conscious rats; pancreatic clamp) | also measured
1 | CC(C)CC(Cl)C(=O)O (stereo not drawn) [α-CIC, α-chloroisocaproic acid] | decrease endogenous glucose production |  |  |  |  | blood glucose levels (conscious rats; intrahypothalamic infusion, conscious rats): lower blood glucose levels
2 | COc1ccc(Cl)cc1C(=O)NCCc1ccc(S(=O)(=O)NC(=O)NC2CCCCC2)cc1 [glibenclamide, reference compound] |  |  |  |  |  | effect per se on rate of glucose infusion and liver glucose fluxes (Sprague Dawley rats; ICV infusion alone, pancreatic clamp): no effects; effect on the effects of ICV KIC on rate of glucose infusion and liver glucose fluxes (Sprague Dawley rats; co-infused ICV with KIC, oxamate 50 mM, 3 μl bolus, 5 μl/h, glibenclamide 100 μM, pancreatic clamp): negated
3 | O=C(O)[C@@H]1CCCN1 [proline] |  | 5.7 ± 0.9 mg/kg/min | 36±2% | not significantly affected |  | 
4 | CC(C)CC(=O)C(=O)O [KIC, α-ketoisocaproic acid] | suppression | 5.2 ± 0.7 mg/kg/min | 40±4% | not significantly affected | increase | glucose utilization (GU) (conscious rats; IH 3 mM KIC, 0.33 μl/h bilaterally, pancreatic clamp): not altered
5 | N[C@@H](CCC(=O)O)C(=O)O [L-glutamate] | marked suppression |  |  |  | significantly increased | circulating glucose after IH administration (conscious rats; IH 1 mM, 0.33 μl/h): 136 ± 2 mg/dL; circulating glucose before IH administration (conscious rats; basal value, before IH L-glutamate 1 mM, 0.33 μl/h): 159 ± 3 mg/dL
